# In patent US20230339970A1, “CASEIN KINASE 1 DELTA MODULATORS” (priority 2020, published 2023):
# Tests used:
# human CSNK1D = target: T1, human CSNK1D (Homo sapiens, UniProt P48730); assay: Whole Cell nBRET CSNK1D Binding Assay; details: living CHO cells stably expressing human CSNK1D tagged with nanoluciferase; NanoBret tracer 130 nM; 2 hours at 37 C
# T1 construct: expressed in transfected cells
# [1] = target: T2, human recombinant GST cleaved CSNK1D (Homo sapiens, UniProt P48730); assay: Purified Enzyme Assay (ADP-Glo CSNK1D Kinase Assay); format: biochemical; details: 2 nM CSNK1D; peptide substrate 150 μM; ATP 20 μM; 45 minutes at room temperature
# T2 construct: GST (cleaved yes); purchased University of Dundee clone DU 19064
# T2 sequence (P48730 whole entry): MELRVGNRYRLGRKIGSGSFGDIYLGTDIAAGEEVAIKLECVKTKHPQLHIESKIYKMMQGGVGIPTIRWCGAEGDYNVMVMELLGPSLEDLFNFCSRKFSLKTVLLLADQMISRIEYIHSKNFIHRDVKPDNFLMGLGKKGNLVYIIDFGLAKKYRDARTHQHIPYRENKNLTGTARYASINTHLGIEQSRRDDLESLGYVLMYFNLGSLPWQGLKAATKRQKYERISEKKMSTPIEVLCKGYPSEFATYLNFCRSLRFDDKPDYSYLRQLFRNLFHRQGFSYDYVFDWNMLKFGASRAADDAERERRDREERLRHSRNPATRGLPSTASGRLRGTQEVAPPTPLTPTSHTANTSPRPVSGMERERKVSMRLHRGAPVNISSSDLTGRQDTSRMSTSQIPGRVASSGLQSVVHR
# Summary of the method: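 Percent activity derived from ADP-Glo quantification of ADP produced. Reactions: compound dose-response with human recombinant GST-cleaved CSNK1D, ATP and substrate peptide PLSRTL-pS-VASLPGL, incubated 45 min at room temperature.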
# T1 sequence (P48730 whole entry): as above
IC50 (human CSNK1D) [nM],IC50 [1] [nM],Structure (SMILES)
19,4,"Fc1ccc(-c2nn3c(c2-c2c(F)cnc4[nH]ncc24)CCC(F)(F)C3)cc1 [Example 280, 4-(6,6-difluoro-2-(4-fluorophenyl)-4,5,6,7-tetrahydropyrazolo[1,5-a]pyridin-3-yl)-5-fluoro-1H-pyrazolo[3,4-b]pyridine]"
215,4,"COc1ccc2nccc(-c3c(-c4ccc(F)cn4)nn4c3OCCC4)c2n1 [Example 190, 2-(5-Fluoro-2-pyridyl)-3-(6-methoxy-1,5-naphthyridin-4-yl)-6,7-dihydro-5H-pyrazolo[5,1-b][1,3]oxazine]"
8060,370,"COC1(C)COCc2c(-c3ccnc4[nH]ncc34)c(-c3ccc(F)cn3)nn2C1 (single isomer, unassigned) [Example 485, (*S)-2-(5-Fluoropyridin-2-yl)-7-methoxy-7-methyl-3-(1H-pyrazolo[3,4-b]pyridin-4-yl)-7,8-dihydro-4H,6H-pyrazolo[5,1-c][1,4]oxazepine]"
5,1,"Fc1ccc(-c2nn3c(c2-c2ccnc4[nH]ncc24)CC2(C3)CC2(F)F)cc1 (single isomer, unassigned) [Example 250, (*S)-1′,1′-Difluoro-2-(4-fluorophenyl)-3-(1H-pyrazolo[3,4-b]pyridin-4-yl)spiro[4,6-dihydropyrrolo[1,2-b]pyrazole-5,2′-cyclopropane]]"
1590,67,"CCn1ncc2cc(-c3c(-c4ccc(F)cn4)nn4c3OCC(C)C4)cnc21 (stereo not drawn) [Example 444, 3-(1-Ethyl-1H-pyrazolo[3,4-b]pyridin-5-yl)-2-(5-fluoropyridin-2-yl)-6-methyl-6,7-dihydro-5H-pyrazolo[5,1-b][1,3]oxazine]"
16,3,"Fc1ccc(-c2nn3c(c2-c2ccnc4[nH]ncc24)CCC(F)(F)C3)cc1 [Example 42, 4-(6,6-Difluoro-2-(4-fluorophenyl)-4,5,6,7-tetrahydropyrazolo[1,5-a]pyridin-3-yl)-1H-pyrazolo[3,4-b]pyridine]"
23,5,"[2H]C([2H])([2H])C1(C([2H])([2H])[2H])Cn2nc(-c3ccc(F)cn3)c(-c3c(F)cnc4[nH]nc(Cl)c34)c2CO1 [Example 403, 3-(3-Chloro-5-fluoro-1H-pyrazolo[3,4-b]pyridin-4-yl)-2-(5-fluoropyridin-2-yl)-6,6-bis(methyl-d3)-6,7-dihydro-4H-pyrazolo[5,1-c][1,4]oxazine]"
32,4,"Fc1ccc(-c2nn3c(c2-c2ccnc4[nH]ncc24)C[C@@H]2C[C@@H]23)nc1 [Example 26, (4aS,5aS)-2-(5-Fluoropyridin-2-yl)-3-(1H-pyrazolo[3,4-b]pyridin-4-yl)-4,4a,5,5a-tetrahydrocyclopropa[4,5]pyrrolo[1,2-b]pyrazole]"
227,7,"Cc1cc(-c2c(-c3ccc(F)cn3)nn3c2COCC3)c2cn[nH]c2n1 [Example 79, 2-(5-Fluoro-2-pyridyl)-3-(6-methyl-1H-pyrazolo[3,4-b]pyridin-4-yl)-6,7-dihydro-4H-pyrazolo[5,1-c][1,4]oxazine]"
48,2,"C[C@H]1Cn2nc(-c3ccc(F)cc3)c(-c3ccnc4[nH]ncc34)c2CO1 (single isomer, unassigned) [Example 81, (*)-2-(4-Fluorophenyl)-6-methyl-3-(1H-pyrazolo[3,4-b]pyridin-4-yl)-6,7-dihydro-4H-pyrazolo[5,1-c][1,4]oxazine]"
39,4,"[2H]C([2H])([2H])OC([2H])([2H])[C@]1(F)CCc2c(-c3cc(C)nc4[nH]ncc34)c(-c3ccc(F)cn3)nn2C1 (single isomer, unassigned) [Example 312, (*S)-4-[6-[(Methoxy-d3)methyl-d2]-6-fluoro-2-(5-fluoro-2-pyridyl)-5,7-dihydro-4H-pyrazolo[1,5-a]pyridin-3-yl]-6-methyl-1H-pyrazolo[3,4-b]pyridine]"
40,8,"Cc1nc2[nH]ncc2c(-c2c(-c3ccc(F)cn3)nn3c2CC[C@H]2[C@@H]3C2(F)F)c1F (single isomer, unassigned) [Example 357, (5a*S,6a*R)-6,6-Difluoro-3-(5-fluoro-6-methyl-1H-pyrazolo[3,4-b]pyridin-4-yl)-2-(5-fluoropyridin-2-yl)-5,5a,6,6a-tetrahydro-4H-cyclopropa[e]pyrazolo[1,5-a]pyridine]"
15,1,"[2H]C([2H])([2H])[C@]1(C#N)CCc2c(-c3ccnc4[nH]ncc34)c(-c3ccc(F)cn3)nn2C1 (single isomer, unassigned) [Example 323, *S-2-(5-Fluoropyridin-2-yl)-6-(methyl-d3)-3-(1H-pyrazolo[3,4-b]pyridin-4-yl)-4,5,6,7-tetrahydropyrazolo[1,5-a]pyridine-6-carbonitrile]"
72,8,"Cc1nc2[nH]ncc2c(-c2c(-c3ccc(F)cn3)nn3c2COC(C)(C)C3)c1F [Example 157, 3-(5-Fluoro-6-methyl-1H-pyrazolo[3,4-b]pyridin-4-yl)-2-(5-fluoro-2-pyridyl)-6,6-dimethyl-4,7-dihydropyrazolo[5,1-c][1,4]oxazine]"
1330,54,"CC1(C)Cn2nc(-c3ccc(F)cn3)c(-c3ccnc4ccsc34)c2CO1 [Example 137, 2-(5-Fluoropyridin-2-yl)-6,6-dimethyl-3-(thieno[3,2-b]pyridin-7-yl)-6,7-dihydro-4H-pyrazolo[5,1-c][1,4]oxazine]"
176,14,"[2H]C([2H])([2H])C1(C([2H])([2H])[2H])CC(O)c2c(-c3ccnc4[nH]ncc34)c(-c3ccc(F)cn3)nn2C1 (stereo not drawn) [Example 366, 2-(5-Fluoropyridin-2-yl)-6,6-bis(methyl-d3)-3-(1H-pyrazolo[3,4-b]pyridin-4-yl)-4,5,6,7-tetrahydropyrazolo[1,5-a]pyridin-4-ol]"
5,2,"CCC(=O)Nc1cc(-c2c(-c3ccc(F)cn3)nn3c2OCC(C)(C)C3)ccn1 [Example 447, N-(4-(2-(5-Fluoropyridin-2-yl)-6,6-dimethyl-6,7-dihydro-5H-pyrazolo[5,1-b][1,3]oxazin-3-yl)pyridin-2-yl)propionamide]"
5690,344,"CCn1ncc2cc(-c3c(-c4ccc(F)cn4)nn4c3COC(C)(C)C4)cnc21 [Example 141, 3-(1-Ethyl-1H-pyrazolo[3,4-b]pyridin-5-yl)-2-(5-fluoropyridin-2-yl)-6,6-dimethyl-6,7-dihydro-4H-pyrazolo[5,1-c][1,4]oxazine]"
74,8,"CC(=O)Nc1cc(-c2c(-c3ccc(F)cc3)nn3c2CC[C@@H]2[C@H]3C2(F)F)ccn1 (stereo in doubt) [Example 349, N-(4-((5a*R,6a*S-6,6-Difluoro-2-(4-fluorophenyl)-5,5a,6,6a-tetrahydro-4H-cyclopropa[e]pyrazolo[1,5-a]pyridin-3-yl)pyridin-2-yl)acetamide]"
243,20,"Clc1ccc(-c2nn3c(c2-c2ccnc4[nH]ncc24)COCC3)cc1 [Example 67, 2-(4-Chlorophenyl)-3-(1H-pyrazolo[3,4-b]pyridin-4-yl)-6,7-dihydro-4H-pyrazolo[5,1-c][1,4]oxazine]"
724,42,"Cc1n[nH]c2nccc(-c3c(-c4ccc(F)cc4)nn4c3COC(C(F)(F)F)C4)c12 (single isomer, unassigned) [Example 372, (*S)-2-(4-Fluorophenyl)-3-(3-methyl-1H-pyrazolo[3,4-b]pyridin-4-yl)-6-(trifluoromethyl)-6,7-dihydro-4H-pyrazolo[5,1-c][1,4]oxazine]"
94,5,"CC1(C)Cn2nc(-c3ccc(F)cn3)c(-c3c(F)cnc4[nH]ncc34)c2CO1 [Example 389, 3-(5-Fluoro-1H-pyrazolo[3,4-b]pyridin-4-yl)-2-(5-fluoropyridin-2-yl)-6,6-dimethyl-6,7-dihydro-4H-pyrazolo[5,1-c][1,4]oxazine]"
4,1,"Cc1cc(-c2c(-c3ccc(F)cc3)nn3c2OCC(C)C3)c2cn[nH]c2n1 (racemic) [Example 192, (R/S)-2-(4-Fluorophenyl)-6-methyl-3-(6-methyl-1H-pyrazolo[3,4-b]pyridin-4-yl)-6,7-dihydro-5H-pyrazolo[5,1-b][1,3]oxazine]"
244,13,"CC1(C)Cn2nc(-c3ccc(F)cn3)c(-c3ccncc3)c2CO1 [Example 128, 2-(5-Fluoropyridin-2-yl)-6,6-dimethyl-3-(pyridin-4-yl)-6,7-dihydro-4H-pyrazolo[5,1-c][1,4]oxazine]"
4,2,"Fc1ccc(-c2nn3c(c2-c2ccnc4[nH]nc(Cl)c24)C[C@@H]2C[C@@H]23)nc1 [Example 271, (4aS,5aS)-3-(3-Chloro-1H-pyrazolo[3,4-b]pyridin-4-yl)-2-(5-fluoropyridin-2-yl)-4,4a,5,5a-tetrahydrocyclopropa[4,5]pyrrolo[1,2-b]pyrazole]"
23,6,"Fc1ccc(-c2nn3c(c2-c2ccnc4[nH]ncc24)CCC2(C3)CC2(F)F)cc1 (single isomer, unassigned) [Example 326, (*S)-2,2-Difluoro-2′-(4-fluorophenyl)-3′-1H-pyrazolo[3,4-b]pyridin-4-yl)-4′,5′-dihydro-7′H-spiro[cyclopropane-1,6′-pyrazolo[1,5-a]pyridine]]"
43,4,"[2H]C([2H])([2H])C1(C([2H])([2H])[2H])Cn2nc(-c3ccc(F)cn3)c(-c3cc(C)nc4[nH]ncc34)c2CO1 [Example 401, 2-(5-Fluoropyridin-2-yl)-6,6-bis(methyl-d3)-3-(6-methyl-1H-pyrazolo[3,4-b]pyridin-4-yl)-6,7-dihydro-4H-pyrazolo[5,1-c][1,4]oxazine]"
